According to PubChem BioAssay AID1259407 (Chemical Carcinogenesis Research Information System (CCRIS), 2018):
Activity calls are given as the source filed them. How the calls were made is not given here.

Test system: CCRIS mutagenicity, Ames/micronucleus/aberration tests
Assay: CCRIS mutagenicity studies
[1] = Test System: AMES SALMONELLA TYPHIMURIUM, Strain/Indicator: TA97, Metabolic Activation: NONE, Method: PREINCUBATION
[2] = Test System: AMES SALMONELLA TYPHIMURIUM, Strain/Indicator: TA100, Metabolic Activation: NONE, Method: PREINCUBATION
[3] = Test System: AMES SALMONELLA TYPHIMURIUM, Strain/Indicator: TA1535, Metabolic Activation: NONE, Method: PREINCUBATION
[4] = Test System: AMES SALMONELLA TYPHIMURIUM, Strain/Indicator: TA1535, Metabolic Activation: NONE, Method: STANDARD PLATE

Measured: mutagenic call

CCCCOC(=O)CCC
inactive: [1] inactive; negative | Test System: AMES SALMONELLA TYPHIMURIUM, Strain/Indicator: TA97, Metabolic Activation: RAT, LIVER, S-9, AROCLOR 1254, Method: PREINCUBATION inactive; negative | Test System: AMES SALMONELLA TYPHIMURIUM, Strain/Indicator: TA102, Metabolic Activation: NONE, Method: PREINCUBATION inactive; negative | Test System: AMES SALMONELLA TYPHIMURIUM, Strain/Indicator: TA102, Metabolic Activation: RAT, LIVER, S-9, AROCLOR 1254, Method: PREINCUBATION inactive; negative

CCCCN(N=O)/C(N)=N/[N+](=O)[O-]
active: [2] active; positive | Test System: AMES SALMONELLA TYPHIMURIUM, Strain/Indicator: TA100, Metabolic Activation: RAT, LIVER, S-9, KC500 OR PHENOBARBITAL, Method: LIQUID SUSPENSION active; positive | [3] active; positive | [4] active; positive | Test System: AMES SALMONELLA TYPHIMURIUM, Strain/Indicator: TA1535, Metabolic Activation: RAT, LIVER, S-9, KC500 OR PHENOBARBITAL, Method: LIQUID SUSPENSION active; positive | Test System: AMES SALMONELLA TYPHIMURIUM, Strain/Indicator: YG7104, Metabolic Activation: NONE, Method: PREINCUBATION active; positive | Test System: AMES SALMONELLA TYPHIMURIUM, Strain/Indicator: YG7108, Metabolic Activation: NONE, Method: PREINCUBATION active; positive | Test System: AMES SALMONELLA TYPHIMURIUM, Strain/Indicator: YG7112, Metabolic Activation: NONE, Method: PREINCUBATION active; positive | Test System: AMES SALMONELLA TYPHIMURIUM, Strain/Indicator: YG7113, Metabolic Activation: NONE, Method: PREINCUBATION active; positive

CCCCCCCCCCC1CO1 (configuration not stated)
inactive: Test System: AMES SALMONELLA TYPHIMURIUM, Strain/Indicator: TA97, Metabolic Activation: HAMSTER, LIVER, S-9, AROCLOR 1254 (30%), Method: PREINCUBATION inactive; negative | [1] inactive; negative | Test System: AMES SALMONELLA TYPHIMURIUM, Strain/Indicator: TA97, Metabolic Activation: RAT, LIVER, S-9, AROCLOR 1254 (10% & 30%), Method: PREINCUBATION inactive; negative | Test System: AMES SALMONELLA TYPHIMURIUM, Strain/Indicator: TA98, Metabolic Activation: HAMSTER, LIVER, S-9, AROCLOR 1254 (10% & 30%), Method: PREINCUBATION inactive; negative | Test System: AMES SALMONELLA TYPHIMURIUM, Strain/Indicator: TA98, Metabolic Activation: NONE, Method: PREINCUBATION inactive; negative | Test System: AMES SALMONELLA TYPHIMURIUM, Strain/Indicator: TA98, Metabolic Activation: RAT, LIVER, S-9, AROCLOR 1254 (10% & 30%), Method: PREINCUBATION inactive; negative | Test System: AMES SALMONELLA TYPHIMURIUM, Strain/Indicator: TA100, Metabolic Activation: HAMSTER, LIVER, S-9, AROCLOR 1254 (10% & 30%), Method: PREINCUBATION inactive; negative | [2] inactive; negative | Test System: AMES SALMONELLA TYPHIMURIUM, Strain/Indicator: TA100, Metabolic Activation: RAT, LIVER, S-9, AROCLOR 1254 (10% & 30%), Method: PREINCUBATION inactive; negative | Test System: AMES SALMONELLA TYPHIMURIUM, Strain/Indicator: TA1535, Metabolic Activation: HAMSTER, LIVER, S-9, AROCLOR 1254 (10% & 30%), Method: PREINCUBATION inactive; negative | [3] inactive; negative | Test System: AMES SALMONELLA TYPHIMURIUM, Strain/Indicator: TA1535, Metabolic Activation: RAT, LIVER, S-9, AROCLOR 1254 (10% & 30%), Method: PREINCUBATION inactive; negative | Test System: AMES SALMONELLA TYPHIMURIUM, Strain/Indicator: TA1537, Metabolic Activation: HAMSTER, LIVER, S-9, AROCLOR 1254 (10% & 30%), Method: PREINCUBATION inactive; negative | Test System: AMES SALMONELLA TYPHIMURIUM, Strain/Indicator: TA1537, Metabolic Activation: NONE, Method: PREINCUBATION inactive; negative | Test System: AMES SALMONELLA TYPHIMURIUM, Strain/Indicator: TA1537, Metabolic Activation: RAT, LIVER, S-9, AROCLOR 1254 (10% & 30%), Method: PREINCUBATION inactive; negative | Test System: UDS MOUSE EPIDERMIS IN VIVO/IN VITRO, Strain/Indicator: HOS:HR-1/THYMIDINE INCORPORATION, Metabolic Activation: NONE, Method: LIQUID SCINTILLATION inactive; negative

CN(C)c1ccc(N=Nc2ccc(S(=O)(=O)O)cc2)cc1
inactive: Test System: Ames Salmonella typhimurium, Strain/Indicator: TA102, Metabolic Activation: None, Method: Preincubation inactive; negative | Test System: Ames Salmonella typhimurium, Strain/Indicator: TA104, Metabolic Activation: None, Method: Preincubation inactive; negative
active: Test System: Ames Salmonella typhimurium, Strain/Indicator: TA102, Metabolic Activation: Rat, Liver, S-9, Aroclor 1254, Method: Preincubation active; positive. statistically significant at highest dose. | Test System: Ames Salmonella typhimurium, Strain/Indicator: TA104, Metabolic Activation: Rat, Liver, S-9, Aroclor 1254, Method: Preincubation active; positive. statistically significant at highest dose.

N#CC(C#N)=C(C#N)C#N
inactive: Test System: AMES SALMONELLA TYPHIMURIUM, Strain/Indicator: TA98, Metabolic Activation: HAMSTER, LIVER, S-9, AROCLOR 1254 (10%), Method: STANDARD PLATE inactive; negative | Test System: AMES SALMONELLA TYPHIMURIUM, Strain/Indicator: TA98, Metabolic Activation: NONE, Method: STANDARD PLATE inactive; negative | Test System: AMES SALMONELLA TYPHIMURIUM, Strain/Indicator: TA98, Metabolic Activation: RAT, LIVER, S-9, AROCLOR 1254 (10%), Method: STANDARD PLATE inactive; negative | Test System: AMES SALMONELLA TYPHIMURIUM, Strain/Indicator: TA100, Metabolic Activation: HAMSTER, LIVER, S-9, AROCLOR 1254 (10%), Method: STANDARD PLATE inactive; negative | Test System: AMES SALMONELLA TYPHIMURIUM, Strain/Indicator: TA100, Metabolic Activation: NONE, Method: STANDARD PLATE inactive; negative | Test System: AMES SALMONELLA TYPHIMURIUM, Strain/Indicator: TA100, Metabolic Activation: RAT, LIVER, S-9, AROCLOR 1254 (10%), Method: STANDARD PLATE inactive; negative | Test System: AMES SALMONELLA TYPHIMURIUM, Strain/Indicator: TA1535, Metabolic Activation: HAMSTER, LIVER, S-9, AROCLOR 1254 (10%), Method: STANDARD PLATE inactive; negative | [4] inactive; negative | Test System: AMES SALMONELLA TYPHIMURIUM, Strain/Indicator: TA1535, Metabolic Activation: RAT, LIVER, S-9, AROCLOR 1254 (10%), Method: STANDARD PLATE inactive; negative | Test System: AMES SALMONELLA TYPHIMURIUM, Strain/Indicator: TA1537, Metabolic Activation: HAMSTER, LIVER, S-9, AROCLOR 1254 (10%), Method: STANDARD PLATE inactive; negative | Test System: AMES SALMONELLA TYPHIMURIUM, Strain/Indicator: TA1537, Metabolic Activation: NONE, Method: STANDARD PLATE inactive; negative | Test System: AMES SALMONELLA TYPHIMURIUM, Strain/Indicator: TA1537, Metabolic Activation: RAT, LIVER, S-9, AROCLOR 1254 (10%), Method: STANDARD PLATE inactive; negative | Test System: AMES SALMONELLA TYPHIMURIUM, Strain/Indicator: TA1538, Metabolic Activation: HAMSTER, LIVER, S-9, AROCLOR 1254 (10%), Method: STANDARD PLATE inactive; negative | Test System: AMES SALMONELLA TYPHIMURIUM, Strain/Indicator: TA1538, Metabolic Activation: NONE, Method: STANDARD PLATE inactive; negative | Test System: AMES SALMONELLA TYPHIMURIUM, Strain/Indicator: TA1538, Metabolic Activation: RAT, LIVER, S-9, AROCLOR 1254 (10%), Method: STANDARD PLATE inactive; negative | Test System: MOUSE LYMPHOMA, Strain/Indicator: L5178Y (TK+/TK-), Metabolic Activation: NONE, Method: SUSPENSION/PLATE inactive; negative. reevaluation of results: inconclusive | Test System: MOUSE LYMPHOMA, Strain/Indicator: L5178Y (TK+/TK-), Metabolic Activation: RAT, LIVER, S-9, AROCLOR 1254, Method: SUSPENSION/PLATE inactive; negative. reevaluation of results: inconclusive

NCP(=O)(O)O
active: End Point: In vitro chromosome aberrations, Test System: Human peripheral blood lymphocytes, Metabolic Activation: None active; positive (structural changes) | End Point: In vivo micronucleus, Test System: Bone marrow erythrocytes, Species: Mouse, Strain/Sex: BALB/Male and female, Route: Intraperitoneal active; positive
